Tests used:
[1] = molecular target: T1, dihydropyrimidine dehydrogenase (DPD) (Homo sapiens, UniProt Q12882); settings: re-absorbed BVU, metabolite of oral sorivudine; cited from earlier work
T1 sequence (Q12882 4-1025): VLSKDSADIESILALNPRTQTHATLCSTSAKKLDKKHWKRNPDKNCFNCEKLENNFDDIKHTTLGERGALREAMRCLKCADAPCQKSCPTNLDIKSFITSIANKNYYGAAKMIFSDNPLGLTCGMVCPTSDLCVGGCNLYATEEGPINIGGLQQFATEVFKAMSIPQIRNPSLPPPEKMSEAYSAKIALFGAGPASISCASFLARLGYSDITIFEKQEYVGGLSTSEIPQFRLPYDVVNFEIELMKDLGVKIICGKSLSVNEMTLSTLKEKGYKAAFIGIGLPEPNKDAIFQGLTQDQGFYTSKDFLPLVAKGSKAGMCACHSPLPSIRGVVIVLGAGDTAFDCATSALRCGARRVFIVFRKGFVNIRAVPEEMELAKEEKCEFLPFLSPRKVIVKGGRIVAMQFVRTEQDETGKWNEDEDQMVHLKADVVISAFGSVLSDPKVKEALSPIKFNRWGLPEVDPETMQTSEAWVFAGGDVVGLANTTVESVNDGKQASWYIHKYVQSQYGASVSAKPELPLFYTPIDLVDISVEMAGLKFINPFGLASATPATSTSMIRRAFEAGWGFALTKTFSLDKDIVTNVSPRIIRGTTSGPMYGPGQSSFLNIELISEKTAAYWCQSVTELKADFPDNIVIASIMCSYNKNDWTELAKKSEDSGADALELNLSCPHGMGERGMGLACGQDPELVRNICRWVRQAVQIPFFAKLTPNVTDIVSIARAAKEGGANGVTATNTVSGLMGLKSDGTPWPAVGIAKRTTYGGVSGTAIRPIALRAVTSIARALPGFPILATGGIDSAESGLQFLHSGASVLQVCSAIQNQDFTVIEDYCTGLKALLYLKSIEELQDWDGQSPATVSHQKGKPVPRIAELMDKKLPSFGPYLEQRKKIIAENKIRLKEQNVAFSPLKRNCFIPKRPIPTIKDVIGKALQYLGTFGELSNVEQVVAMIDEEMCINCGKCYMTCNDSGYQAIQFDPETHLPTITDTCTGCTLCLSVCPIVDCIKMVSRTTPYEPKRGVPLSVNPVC

[2] = Study of interaction with 5-FU in rats; format: in vivo, Female Wister rats; settings: for interaction with 5-FU: Groups 5 and 6, preparations for topical use combined with 5-FU; for Body weight (pre.) / Feed intake (pre.): before test
From the text: Interactions with 5-FU, a fluorouracil-based anticancer drug, were studies using sorivudine (BVAU) 3% cream and CVAU 3% cream. Female Wister rats were raised for one week, and hair from the blade bone to the waist was shaved under anesthesia. The preparations for topical use were applied two times a day for one week. The expression “p.o.” appearing in the table means oral administration.
Erythrocyte count and leukocyte count are values measured seven days after the start of administration.

EBV = settings: against EBV; cited from earlier work
[3] = cited from earlier work
HSV-1 [4] = settings: application to the skin, mice; cited from earlier work
[5] = oral agent, administered at the same time; cited from earlier work
HSV-1 [6] = settings: against HSV-1; cited from earlier work
VZV = settings: against VZV; cited from earlier work
[7] = BVAU 30 mg/kg p.o. + 5-FU 60 mg/kg p.o.
[8] = BVAU 30 mg/kg p.o. + 5-FU 60 mg/kg p.o., seven days after start
[9] = single agent p.o. (BVAU 30 mg/kg; 5-FU 60 mg/kg)
[10] = single agent p.o. (BVAU 30 mg/kg; 5-FU 60 mg/kg), seven days after start of administration

## O=c1[nH]cc(/C=C/Br)c(=O)[nH]1 [BVU, bromovinyluracil]
[1]
  inhibition of DPD: inhibits

## O=c1[nH]c(=O)n([C@@H]2O[C@H](CO)[C@@H](O)[C@@H]2O)cc1/C=C/Cl [CVAU, 1-β-D-arabinofuranosyl-5-[(E)-2-chrolovinyl]uracil]
[2]
  interaction with 5-FU: no interaction observed

## O=c1[nH]c(=O)n([C@@H]2O[C@H](CO)[C@@H](O)[C@@H]2O)cc1/C=C/Br [sorivudine, 1-β-D-arabinofuranosyl-5-[(E)-2-bromovinyl]uracil]
EBV
  antiviral activity: extremely potent antiviral activity
[3]
  solubility: slightly soluble
HSV-1 [4]
  skin symptoms caused by inoculation with HSV-1: suppresses the skin symptoms
[2]; [7]
  Body weight (pre.): 125
  Feed intake (pre.): 16
[2]; [8]
  Body weight (7 d): 88
  Erythrocyte count: 892 10^4/mm^3
  Feed intake (7 d): 3
  leukocyte count: 5.8 10^2/mm^3
[2]; Group 4, orally administered with 5-FU (positive control)
  side effect due to interaction with 5-FU: significant weight loss and myelo-suppression
[2]
  interaction with 5-FU: no interaction observed
[2]; [9]
  Body weight (pre.): 124
  Feed intake (pre.): 15
[2]; [10]
  Body weight (7 d): 143
  Erythrocyte count: 653 10^4/mm^3
  Feed intake (7 d): 16
  leukocyte count: 45.6 10^2/mm^3
[5]
  adverse effect due to drug interaction with fluorouracil-based anticancer drugs: died because of the adverse effect due to drug interaction
HSV-1 [6]
  antiviral activity: extremely potent antiviral activity
VZV
  antiviral activity: extremely potent antiviral activity

Reference: US20060009401A1, “Method for treatment and prevention of herpes zoster by topical application” (aRigen, Inc., priority 2004, published 2006)
